According to US9468627B2, “Slow-release formulations of 5-hydroxytryptophan as an adjunct to pro-serotonergic therapies” (Duke University, priority 2010, dated 2016):
Entries after “also recorded” stand apart in the source; their conditions may differ.

Experiments:
[1] = cited from earlier work
[2] = HPLC pilot stability of 5-HTP in water; format: physicochemical; conditions: H2O at RT, HPLC pilot experiments
[3] = Shindo et al. 1977; cited from earlier work
[4] = Side-effect and toxicity observation (body weight, drinking, diarrhea, 5-HT syndrome-like behaviors)
Procedure: Tph2 R439H mice (˜25 g) were treated for >3 wks with a saturating dose of FLX (155 mg/L drinking water, ˜20 mg/kg/day). Thereafter Alzet 2001 minipumps (1 μl delivered/hr) containing a 5-HTP solution (100 mg/ml, ˜100 mg/kg/day) or only vehicle was implanted using isoflurane anesthesia, allowing for swift awakening, and the mice monitored for signs of 5-HT syndrome hourly for 8 hrs and at 24 hrs. Splaying (0=absent, 1=present, 2=severe), head twitch (#/min) and signs of hyperventilation (0=absent, 1=present, 2=severe) was scored. Body weights—a general index of toxicity—were followed for 2 days prior to and 5 days after pump implantation.
METHODS: Mice on >2 w FLX (155 mg/L water, ˜20 mg/kg/d) were implanted with Alzet 2001 minipumps with vehicle (50% DMSO) or 100 mg/ml 5-HTP yielding a hourly (daily) dose of ˜4.2(100 mg)/kg for a ˜25 g mouse. Side-effect parameters were assessed between 30 min and 8 h following pump implantation under brief isoflurane anesthesia (day 1) and then daily (day 2-4). […] Diarrhea: Mice where placed individually in a cage with filter paper and the diarrhea level scored, 0-3. Tremor and splaying: Scored in home cage from 5 min videos. Temperature: Recorded by digital rectal temperature probe in lightly restrained mice. […] Statistics: Genotypes were analyses separately, with 2way RM-ANOVA or t-test as appropriate, and in the former case followed by Bonferroni post-hoc test.
Side-effects were assessed after the AM dose, day 1-4. Diarrhea: Mice were placed individually in a cage with filter paper and the diarrhea level scored, 0-3, 0-15 min after injection. Tremor, splaying and head-twitch: Scored in home cage from 5 min videos, 25-30 min after injection. Temperature: Recorded by digital rectal temperature probe in lightly restrained mice 30 min after injection. […] Statistics: Genotypes were analyzed separately, with 2way RM-ANOVA or t-test where appropriate, and in the former case followed by Bonferroni post-hoc test.
METHODS: 5-HTP (2 mg/L) was dissolved in (1 mg/L) saccharin-H2O, administered in blackened bottles and changed twice weekly. […] Body weights and drinking per cage was followed throughout and 5-HTP consumed estimated here from.

[5] = immediate-release oral 5-HTP; cited from earlier work
[6] = test system: extracellular serotonin (5-HTExt); test: 5-HT microdialysis (5-HTExt); format: in vivo, mice
Procedure: Mice were anesthetized by ketamine/xylazine (100 and 10 mg kg^−1, respectively, in saline, i.p) and a guide cannula (CMA7, CMA Microdialysis, Chelmsford, Mass., USA) was stereotactically implanted into the frontal cortex (AP: 2.3 mm, ML: 0.3 mm, DV: 0.7 mm), hippocampus (AP: −3.3 mm, ML: 3.0 mm, DV: 1.5 mm) or lateral ventricle (AP: 0.3 mm; ML: 0.9 mm; DV: 2.0 mm) according to the atlas by Franklin and Paxinos (see, e.g., Franklin, K. and Paxinos, G. The Mouse Brain in Stereotaxic Coordinates. Academic Press: San Diego, 1997) and fixed in place with two anchor screws (CMA) and carboxylate dental cement (CMA). Operated mice were singly housed, treated with antibiotics (1.2 mg sulfamethoxazole ml^−1 and 0.24 mg trimethoprim ml^−1) in the drinking water and allowed to recover 48-96 h post-surgery.
The microdialysis probe was inserted into the guide cannula approximately 16 h before the start of sample collection to allow for the stabilization of 5-HTExt levels. […] Dialysates were analyzed off-line by high-performance liquid chromatography-electrochemical detection (HPLC-EC) for 5-HT, 5-HIAA, 3,4-dihydroxyphenylacetic acid and homovanillic acid, or by the SymDAQ HPLC-tandem-mass spectrometry technology for simultaneous determination of monoamines and amino acids.
METHODS: 5-HT Microdialysis 5-HTP SR. […] 5-HTExt in dialysates was determined by HPLC-EC. […]

SMILES: N[C@@H](Cc1c[nH]c2ccc(O)cc12)C(=O)O [5-HTP, 5-hydroxytryptophan]
- antidepressant effect (HAMD) at endpoint ([1]; Alino et al.: 30 inpatients, nialamid 300 mg + 5-HTP 300 mg, two weeks, double-blind): significantly better than nialamide alone
- antidepressant effect (HAMD) versus clomipramine + placebo ([1]; Nardini et al.: 26 inpatients, clomipramine 50 mg + 5-HTP 300 mg, four weeks, double-blind): 5-HTP enhanced clomipramines effect
- patients going into remission ([1]; van Hiele: 99 chronic treatment resistant out-patients, mostly on TCAs, add-on 5-HTP ~200 mg + carbidopa, open label): Forty-three
- side effects ([1]; van Hiele: add-on 5-HTP ~200 mg + carbidopa, severity greatly decreased with enteric coated capsules): nausea, vomiting and diarrhea
- patients improved ([1]; van Praag: 7 chronic treatment resistant out-patients, clomipramine 50 mg + 5-HTP ~2-400 mg + PDI MK 486): Four
- stability in H2O [2]: stable for weeks
- first-pass metabolism in the intestine [3]: ~50%
- drinking ([4]; 5-HTP 2 mg/ml and 4 mg/ml in drinking water): Decreased drinking
- body weight ([4]; 5-HTP 4 mg/ml in drinking water): Body weight decrease
- 5-HT syndrome-like behavior ([4]; acute 5-HTP bolus 80 mg/kg i.p., add-on to existing FLX ≈18 mg/kg/day): resulted in 5-HT syndrome-like behavior; also recorded: causes 5-HT syndrome; also recorded: Serotonin syndrome-like behavior was observed
- diarrhea, malaise, gastrointestinal side effects ([4]; bolus injection 5-HTP 120 mg/kg i.p.): caused gastrointestinal side effects; also recorded: caused diarrhea and obvious malaise
- diarrhea, malaise, gastrointestinal side effects ([4]; continuous 5-HTP in drinking water 4 mg/ml): No diarrhea and no obvious malaise; also recorded: did not result in gastrointestinal side effects
- drinking ([4]; higher 5-HTP concentrations in drinking water, in pilots): inhibited drinking
- toxicity (weights, head twitches, diarrhea) ([4]; oral 5-HTP ≈200 mg/kg/day, no carbidopa, add-on to existing fluoxetine ≈18 mg/kg/day): No indication of toxicity; also recorded: not toxic and does not result in side effects
- T1/2 [5]: 2 to 3 h
- Tmax [5]: 1 to 2 h

SMILES: CCCN(CCC)C1CCc2cccc(O)c2C1 (stereo not shown) [8-OH-DPAT]
- decrease of 5-HTExt ([6]; 8-OH-DPAT 1 mg/kg i.p.): approximately 50%

SMILES: CNCCC(Oc1ccc(C(F)(F)F)cc1)c1ccccc1 (stereo not shown) [FLX, fluoxetine]
- 5-HTExt response to chronic FLX ([6]; wild-type mice, FLX ≈18 mg/kg/day): robust increase
- effect of FLX on 5-HTP-induced diarrhea (peri-rectal fecal smearing) ([4]; FLX ≈18 mg/kg/day, 5-HTP bolus 80 mg/kg i.p., not rigorously tested): seems to decrease diarrhea induced by 5-HTP; also recorded: appeared to lessen 5-HTP-induced diarrhea
